Assay results published in US4400378A, “Pharmaceutical composition for the treatment of glaucoma” (priority 1981, dated 1983).
Where a name gives a salt, the structure may show the parent alone.

What was measured:
[1] = Oral acute toxicity (LD50) in the mouse; conditions: in vivo
Source text: Furthermore, the compounds of the formula I and their non-toxic, pharmacologically acceptable acid addition salts show good compatibility.

intraocular pressure = experiment: Intraocular pressure in rabbits after topical application to the eye (tonometric, Alcon Applanation Pneumotonograph); format: in vivo, white New Zealand rabbits; conditions: 2 drops (50 μl) per eye, rabbit
Description: B=2-Amino-6-allyl-5,6,7,8-tetrahydro-4H-thiazolo[4,5-d]azepine dihydrochloride. The tests were performed on white New Zealand rabbits of both sexes having a body weight of 2.5 to 3 kg. Each rabbit was used for 4 tests at intervals of at least 3 days between tests.
The intraocular pressure was measured tonometrically with an Alcon Applanation Pneumotonograph (APTG) calibrated for the human eye. By means of a factor obtained by comparison of the manometric values and APTG values in rabbits anesthetized with urethane, the so-called real pressures were determined. Moreover, before each measurement the cornea was anesthetized with 20 μl of an 0.05% oxybuprocain [2-(diethylamino)-ethyl-4-amino-3-butoxy-benzoate] solution.
The test compound was dropped at different concentrations directly into each eye, 2 drops (50 μl) per eye.

SMILES	LD50 [1]	Reduction of the intraocular pressure in % after one hour (intraocular pressure; 0.3% concentration)	Reduction of the intraocular pressure in % after one hour (intraocular pressure; 1.0% concentration)	Reduction of the intraocular pressure in % after one hour (intraocular pressure; 3.0% concentration)	Values of the intraocular pressure in mmHg after one hour (intraocular pressure; 0.01% concentration)	Values of the intraocular pressure in mmHg after one hour (intraocular pressure; 0.03% concentration)	Values of the intraocular pressure in mmHg after one hour (intraocular pressure; concentration 0.3 (% not given))	Values of the intraocular pressure in mmHg after one hour (intraocular pressure; concentration 1.0 (% not given))
CCN1CCc2nc(N)oc2CC1 [Compound A, 2-Amino-6-ethyl-5,6,7,8-tetrahydro-4H-oxoazolo[4,5-d]azepine dihydrochloride]	2.21 mg/kg	-15%	-21%	-32%				
C=CCN1CCc2nc(N)sc2CC1.Cl.Cl [Compound B, 2-Amino-6-allyl-5,6,7,8-tetrahydro-4H-thiazolo[4,5-d]azepine dihydrochloride]	455 mg/kg				15 mmHg	14.5 mmHg	13 mmHg	10 mmHg
